For test [1], the target named is T1, Serine/threonine-protein kinase D2 (Homo sapiens) (UniProt Q9BZL6).
T1 sequence (whole entry): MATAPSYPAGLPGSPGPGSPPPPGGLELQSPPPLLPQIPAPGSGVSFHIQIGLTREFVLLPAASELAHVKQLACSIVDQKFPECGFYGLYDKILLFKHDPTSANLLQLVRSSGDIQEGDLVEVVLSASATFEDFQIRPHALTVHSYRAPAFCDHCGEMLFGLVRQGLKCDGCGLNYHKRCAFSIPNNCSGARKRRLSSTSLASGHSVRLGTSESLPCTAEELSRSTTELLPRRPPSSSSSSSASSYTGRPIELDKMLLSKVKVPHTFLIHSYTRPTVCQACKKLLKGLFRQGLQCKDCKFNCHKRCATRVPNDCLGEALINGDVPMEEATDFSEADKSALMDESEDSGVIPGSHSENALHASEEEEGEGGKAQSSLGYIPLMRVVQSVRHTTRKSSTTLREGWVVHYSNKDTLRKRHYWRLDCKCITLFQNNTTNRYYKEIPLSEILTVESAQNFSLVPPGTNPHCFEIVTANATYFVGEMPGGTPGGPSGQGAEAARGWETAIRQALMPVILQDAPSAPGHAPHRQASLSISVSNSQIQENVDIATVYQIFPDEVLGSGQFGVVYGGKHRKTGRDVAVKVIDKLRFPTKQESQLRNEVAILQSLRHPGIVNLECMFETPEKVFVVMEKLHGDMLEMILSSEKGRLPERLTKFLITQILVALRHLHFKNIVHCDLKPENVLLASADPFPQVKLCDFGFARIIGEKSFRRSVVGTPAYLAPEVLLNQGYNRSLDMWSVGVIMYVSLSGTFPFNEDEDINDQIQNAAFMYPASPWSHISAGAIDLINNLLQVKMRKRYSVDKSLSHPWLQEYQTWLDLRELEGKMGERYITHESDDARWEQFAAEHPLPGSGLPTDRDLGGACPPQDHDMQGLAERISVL
The experiment in a line: Inhibition of human full length PKD2 expressed in baculovirus assessed as substrate phosphorylation using fluorescence-labelled peptides as substrate at 8 uM after 90 mins by microfluidic peptide phosphorylation assay.

The target in test [2] is MAP kinase-activated protein kinase 3 (Homo sapiens) (UniProt Q16644). The experiment in a line: Inhibition of human full length MAPKAPK3 expressed in Escherichia coli cell assessed as substrate phosphorylation using fluorescence-labelled peptides as substrate at 420 uM after 90 mins by microfluidic peptide phosphorylation assay.
Test [3] deals with Mitogen-activated protein kinase kinase kinase kinase 4 (Homo sapiens) (UniProt O95819). The experiment in a line: Inhibition of human HGK catalytic domain expressed in baculovirus assessed as substrate phosphorylation using fluorescence-labelled peptides as substrate at 420 uM after 90 mins by microfluidic peptide phosphorylation assay.
Test [4] deals with Vascular endothelial growth factor receptor 2 (Homo sapiens) (UniProt P35968). The experiment in a line: Inhibition of human KDR cytoplasmic domain expressed in baculovirus assessed as substrate phosphorylation using fluorescence-labelled peptides as substrate at 0.1 uM after 90 mins by microfluidic peptide phosphorylation assay.
Test [5] addresses RAC-alpha serine/threonine-protein kinase (Homo sapiens) (UniProt P31749). To be noted: 0.06 uM.
Description: Inhibition of human AKT1 catalytic domain expressed in baculovirus assessed as substrate phosphorylation using fluorescence-labelled peptides as substrate at 0.06 uM after 90 mins by microfluidic peptide phosphorylation assay
Test [6] has as its system Tyrosine-protein kinase ABL1 (Homo sapiens), P00519 [Q252H]. The experiment in a line: Inhibition of human truncated ABL Q252H mutant expressed in baculovirus assessed as substrate phosphorylation using fluorescence-labelled peptides as substrate at 0.2 uM after 90 mins by microfluidic peptide phosphorylation assay.
Test [7] relates to T2, Receptor-type tyrosine-protein kinase FLT3 (Homo sapiens), P36888 [D835Y].
T2 sequence (whole entry): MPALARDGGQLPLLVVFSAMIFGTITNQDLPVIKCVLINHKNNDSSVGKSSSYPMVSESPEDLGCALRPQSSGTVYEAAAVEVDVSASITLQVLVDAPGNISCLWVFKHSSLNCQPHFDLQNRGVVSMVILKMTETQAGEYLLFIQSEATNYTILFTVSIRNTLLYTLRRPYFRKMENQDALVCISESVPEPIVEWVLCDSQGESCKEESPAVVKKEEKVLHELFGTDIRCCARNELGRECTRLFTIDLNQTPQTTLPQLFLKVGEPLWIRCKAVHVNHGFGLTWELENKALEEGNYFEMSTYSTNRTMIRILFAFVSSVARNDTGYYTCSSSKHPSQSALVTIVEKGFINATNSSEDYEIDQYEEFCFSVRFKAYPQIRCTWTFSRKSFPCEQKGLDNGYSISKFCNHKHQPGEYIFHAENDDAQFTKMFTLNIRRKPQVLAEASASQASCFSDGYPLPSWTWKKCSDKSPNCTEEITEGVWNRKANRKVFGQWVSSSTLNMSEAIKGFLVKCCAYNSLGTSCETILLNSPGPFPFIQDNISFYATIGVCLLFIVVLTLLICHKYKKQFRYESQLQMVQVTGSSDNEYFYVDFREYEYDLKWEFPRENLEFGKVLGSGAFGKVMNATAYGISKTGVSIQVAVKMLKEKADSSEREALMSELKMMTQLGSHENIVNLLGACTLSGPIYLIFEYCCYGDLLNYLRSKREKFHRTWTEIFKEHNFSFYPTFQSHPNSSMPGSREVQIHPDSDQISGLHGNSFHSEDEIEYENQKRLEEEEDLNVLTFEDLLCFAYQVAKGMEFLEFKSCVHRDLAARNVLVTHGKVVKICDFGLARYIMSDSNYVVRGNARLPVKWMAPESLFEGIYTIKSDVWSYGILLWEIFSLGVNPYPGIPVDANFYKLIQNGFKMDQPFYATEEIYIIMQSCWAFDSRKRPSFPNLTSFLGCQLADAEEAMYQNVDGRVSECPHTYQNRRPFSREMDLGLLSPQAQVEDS
The experiment in a line: Inhibition of human FLT3 D835Y mutant catalytic domain expressed in baculovirus assessed as substrate phosphorylation using fluorescence-labelled peptides as substrate at 2 uM after 90 mins by microfluidic peptide phosphorylation assay.

Test [8] deals with Fibroblast growth factor receptor 1 (Homo sapiens) (UniProt P11362). The experiment in a line: Inhibition of human FGFR1 catalytic domain expressed in baculovirus assessed as substrate phosphorylation using fluorescence-labelled peptides as substrate at 2 uM after 90 mins by microfluidic peptide phosphorylation assay.
The target in test [9] is Protein kinase C theta type (Homo sapiens) (UniProt Q04759). The experiment in a line: Inhibition of human truncated PKC theta expressed in baculovirus assessed as substrate phosphorylation using fluorescence-labelled peptides as substrate at […] after 90 mins by microfluidic peptide phosphorylation assay.
The target in test [10] is Insulin receptor (Homo sapiens) (UniProt P06213). The experiment in a line: Inhibition of human INSR catalytic domain expressed in baculovirus assessed as substrate phosphorylation using fluorescence-labelled peptides as substrate at […] after 90 mins by microfluidic peptide phosphorylation assay.

Among the data in ChEMBL document CHEMBL3132769, “Fragment growing to retain or alter the selectivity of anchored kinase hinge-binding fragments” (Medchemcomm, 2014) are inhibition values, retold here.

A word on the inhibition: it is the percentage by which the read-out fell short of the control.

RAC-alpha serine/threonine-protein kinase (Homo sapiens), sequence (P31749 whole entry, the tested form may be a part): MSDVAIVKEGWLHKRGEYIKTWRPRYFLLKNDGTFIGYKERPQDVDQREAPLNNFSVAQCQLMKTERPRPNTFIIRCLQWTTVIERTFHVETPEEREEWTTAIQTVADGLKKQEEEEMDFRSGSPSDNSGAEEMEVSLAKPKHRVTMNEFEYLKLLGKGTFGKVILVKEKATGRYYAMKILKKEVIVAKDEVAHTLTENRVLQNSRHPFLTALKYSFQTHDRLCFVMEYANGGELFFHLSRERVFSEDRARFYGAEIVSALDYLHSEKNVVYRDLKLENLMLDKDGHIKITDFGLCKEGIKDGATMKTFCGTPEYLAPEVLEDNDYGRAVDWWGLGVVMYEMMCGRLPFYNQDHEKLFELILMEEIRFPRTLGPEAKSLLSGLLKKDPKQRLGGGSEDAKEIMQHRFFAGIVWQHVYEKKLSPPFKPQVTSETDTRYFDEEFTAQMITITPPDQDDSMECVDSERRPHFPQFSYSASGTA
Mitogen-activated protein kinase kinase kinase kinase 4 (Homo sapiens), sequence (O95819 2-1239 limits assumed): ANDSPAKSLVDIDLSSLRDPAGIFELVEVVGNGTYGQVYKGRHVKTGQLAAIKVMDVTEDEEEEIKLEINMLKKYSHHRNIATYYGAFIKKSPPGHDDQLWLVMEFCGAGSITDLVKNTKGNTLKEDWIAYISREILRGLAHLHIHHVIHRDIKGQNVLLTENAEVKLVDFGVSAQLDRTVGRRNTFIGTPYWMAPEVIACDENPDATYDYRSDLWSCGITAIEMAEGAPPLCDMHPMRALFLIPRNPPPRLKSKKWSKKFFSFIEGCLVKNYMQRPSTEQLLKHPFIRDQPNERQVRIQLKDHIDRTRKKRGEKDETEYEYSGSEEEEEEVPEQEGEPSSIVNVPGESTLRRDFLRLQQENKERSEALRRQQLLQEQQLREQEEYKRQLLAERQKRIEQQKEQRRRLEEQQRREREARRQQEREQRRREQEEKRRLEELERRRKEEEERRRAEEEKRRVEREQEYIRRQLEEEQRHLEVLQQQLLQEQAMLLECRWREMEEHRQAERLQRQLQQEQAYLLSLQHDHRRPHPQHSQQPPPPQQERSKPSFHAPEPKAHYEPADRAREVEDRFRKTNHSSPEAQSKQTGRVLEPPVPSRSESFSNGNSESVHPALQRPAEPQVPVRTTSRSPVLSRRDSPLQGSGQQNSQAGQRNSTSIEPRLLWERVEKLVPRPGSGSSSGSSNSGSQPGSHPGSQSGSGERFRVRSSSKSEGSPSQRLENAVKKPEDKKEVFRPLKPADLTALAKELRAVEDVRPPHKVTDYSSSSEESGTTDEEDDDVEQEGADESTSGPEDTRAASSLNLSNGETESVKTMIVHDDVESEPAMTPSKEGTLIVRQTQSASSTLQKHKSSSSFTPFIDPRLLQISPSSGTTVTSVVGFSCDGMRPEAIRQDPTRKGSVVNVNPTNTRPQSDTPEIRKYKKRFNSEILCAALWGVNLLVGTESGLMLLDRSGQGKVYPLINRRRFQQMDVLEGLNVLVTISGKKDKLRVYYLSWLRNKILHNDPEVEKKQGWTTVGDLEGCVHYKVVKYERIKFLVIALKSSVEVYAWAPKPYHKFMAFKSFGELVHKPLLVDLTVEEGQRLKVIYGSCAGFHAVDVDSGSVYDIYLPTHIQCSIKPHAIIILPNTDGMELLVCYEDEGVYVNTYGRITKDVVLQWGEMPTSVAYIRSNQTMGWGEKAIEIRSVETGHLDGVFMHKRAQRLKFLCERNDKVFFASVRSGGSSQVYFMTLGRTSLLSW
MAP kinase-activated protein kinase 3 (Homo sapiens), sequence (Q16644 whole entry, looked up, the tested form may be a part): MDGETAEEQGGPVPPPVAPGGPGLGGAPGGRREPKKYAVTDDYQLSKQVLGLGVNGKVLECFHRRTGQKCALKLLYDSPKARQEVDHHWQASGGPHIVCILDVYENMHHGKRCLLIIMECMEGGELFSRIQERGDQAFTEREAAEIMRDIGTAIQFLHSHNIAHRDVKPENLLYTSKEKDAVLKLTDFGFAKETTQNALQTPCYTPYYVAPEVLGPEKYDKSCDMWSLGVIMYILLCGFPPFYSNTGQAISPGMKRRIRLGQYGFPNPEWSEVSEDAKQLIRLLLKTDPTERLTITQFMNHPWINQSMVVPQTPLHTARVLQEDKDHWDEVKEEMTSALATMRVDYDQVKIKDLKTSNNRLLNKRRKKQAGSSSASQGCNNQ
Protein kinase C theta type (Homo sapiens), sequence (Q04759 whole entry, looked up, the tested form may be a part): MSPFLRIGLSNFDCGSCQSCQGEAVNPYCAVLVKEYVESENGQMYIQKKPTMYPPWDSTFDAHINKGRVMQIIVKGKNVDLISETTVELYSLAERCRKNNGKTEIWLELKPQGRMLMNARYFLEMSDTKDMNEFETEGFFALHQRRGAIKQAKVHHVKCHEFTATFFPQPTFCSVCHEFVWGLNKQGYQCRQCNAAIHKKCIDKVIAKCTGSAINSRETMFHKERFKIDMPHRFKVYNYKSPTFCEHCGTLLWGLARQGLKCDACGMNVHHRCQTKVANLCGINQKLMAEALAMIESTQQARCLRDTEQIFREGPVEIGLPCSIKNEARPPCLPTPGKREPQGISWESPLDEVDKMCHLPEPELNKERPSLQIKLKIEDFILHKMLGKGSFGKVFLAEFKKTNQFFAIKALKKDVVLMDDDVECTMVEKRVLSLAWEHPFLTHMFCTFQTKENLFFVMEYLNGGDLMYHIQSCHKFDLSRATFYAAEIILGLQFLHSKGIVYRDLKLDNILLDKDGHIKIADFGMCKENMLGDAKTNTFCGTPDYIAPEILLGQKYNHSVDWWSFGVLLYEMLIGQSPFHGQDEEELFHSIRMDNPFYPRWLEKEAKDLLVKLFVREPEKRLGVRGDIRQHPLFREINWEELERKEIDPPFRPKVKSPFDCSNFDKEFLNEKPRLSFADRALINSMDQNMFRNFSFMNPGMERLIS
Fibroblast growth factor receptor 1 (Homo sapiens), sequence (P11362 22-822 limits assumed): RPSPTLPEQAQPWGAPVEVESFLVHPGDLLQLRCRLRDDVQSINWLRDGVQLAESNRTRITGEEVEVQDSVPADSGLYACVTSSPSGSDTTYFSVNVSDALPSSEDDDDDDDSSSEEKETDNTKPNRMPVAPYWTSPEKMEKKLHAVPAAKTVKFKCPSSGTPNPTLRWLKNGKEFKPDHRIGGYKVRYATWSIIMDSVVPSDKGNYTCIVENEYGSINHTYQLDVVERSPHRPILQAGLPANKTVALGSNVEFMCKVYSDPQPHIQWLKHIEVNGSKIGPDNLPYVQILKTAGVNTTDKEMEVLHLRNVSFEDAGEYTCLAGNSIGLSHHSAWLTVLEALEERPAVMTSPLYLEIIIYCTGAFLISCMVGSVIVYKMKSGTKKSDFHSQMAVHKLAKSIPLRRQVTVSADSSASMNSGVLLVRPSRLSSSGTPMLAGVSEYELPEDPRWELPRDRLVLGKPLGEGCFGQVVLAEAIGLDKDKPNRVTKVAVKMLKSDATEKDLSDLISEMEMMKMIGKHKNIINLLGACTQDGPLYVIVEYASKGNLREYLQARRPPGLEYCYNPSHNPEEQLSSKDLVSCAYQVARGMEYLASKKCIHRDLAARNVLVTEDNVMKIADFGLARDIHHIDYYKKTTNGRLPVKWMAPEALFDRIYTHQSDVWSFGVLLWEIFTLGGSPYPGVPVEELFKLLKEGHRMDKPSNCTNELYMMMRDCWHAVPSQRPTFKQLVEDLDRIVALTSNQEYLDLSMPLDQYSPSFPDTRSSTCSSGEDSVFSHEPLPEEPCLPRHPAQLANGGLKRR
Vascular endothelial growth factor receptor 2 (Homo sapiens), sequence (P35968 whole entry, the tested form may be a part): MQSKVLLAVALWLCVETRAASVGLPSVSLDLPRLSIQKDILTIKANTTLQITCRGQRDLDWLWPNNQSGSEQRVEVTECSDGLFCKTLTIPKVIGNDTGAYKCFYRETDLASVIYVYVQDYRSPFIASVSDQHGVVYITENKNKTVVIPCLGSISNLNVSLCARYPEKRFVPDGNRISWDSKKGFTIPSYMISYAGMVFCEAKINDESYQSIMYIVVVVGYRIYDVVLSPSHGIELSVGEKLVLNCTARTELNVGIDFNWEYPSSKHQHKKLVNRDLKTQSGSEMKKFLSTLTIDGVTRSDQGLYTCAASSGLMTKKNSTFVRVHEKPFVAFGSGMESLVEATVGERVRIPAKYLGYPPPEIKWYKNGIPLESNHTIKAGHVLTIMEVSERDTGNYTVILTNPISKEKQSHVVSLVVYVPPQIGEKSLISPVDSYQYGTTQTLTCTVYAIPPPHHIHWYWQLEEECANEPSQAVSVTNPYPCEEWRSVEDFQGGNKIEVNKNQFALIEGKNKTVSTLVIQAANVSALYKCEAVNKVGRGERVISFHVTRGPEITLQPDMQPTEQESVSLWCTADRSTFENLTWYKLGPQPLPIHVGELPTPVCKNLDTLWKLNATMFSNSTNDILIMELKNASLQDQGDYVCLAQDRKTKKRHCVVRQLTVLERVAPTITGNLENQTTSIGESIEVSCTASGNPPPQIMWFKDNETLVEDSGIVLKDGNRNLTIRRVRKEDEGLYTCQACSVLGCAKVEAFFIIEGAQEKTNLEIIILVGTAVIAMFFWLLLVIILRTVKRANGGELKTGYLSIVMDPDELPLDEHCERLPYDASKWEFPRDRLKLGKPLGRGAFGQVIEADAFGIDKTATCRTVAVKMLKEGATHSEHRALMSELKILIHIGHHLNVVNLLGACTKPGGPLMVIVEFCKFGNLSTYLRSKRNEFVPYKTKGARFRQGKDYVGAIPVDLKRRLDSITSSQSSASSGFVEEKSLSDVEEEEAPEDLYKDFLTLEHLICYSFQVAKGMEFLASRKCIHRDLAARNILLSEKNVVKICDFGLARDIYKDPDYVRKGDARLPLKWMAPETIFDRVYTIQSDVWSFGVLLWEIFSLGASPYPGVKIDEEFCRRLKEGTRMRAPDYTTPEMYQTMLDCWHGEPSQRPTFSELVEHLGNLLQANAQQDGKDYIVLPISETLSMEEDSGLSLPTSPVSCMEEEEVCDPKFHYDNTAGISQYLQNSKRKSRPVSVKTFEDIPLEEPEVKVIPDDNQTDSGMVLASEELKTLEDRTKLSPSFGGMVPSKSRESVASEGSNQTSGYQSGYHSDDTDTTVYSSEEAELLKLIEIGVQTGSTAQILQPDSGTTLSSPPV

For `NCC1CCN(c2ncnc3[nH]ccc23)CC1`, the inhibition in [1] amounted to 28.5%.

As for `c1nc(N2CCOCC2)c2nc[nH]c2n1`, the inhibition in test [2] was 96.5%; in [3], 78.5%.

For the compound `C[C@H](CN(C)C)Oc1nc(Nc2cc3cccc(Cl)c3cn2)cnc1C#N`, in test [4], the inhibition is 14%.

`NC1(Cc2ccc(Cl)cc2)CCN(c2ncnc3[nH]ccc23)CC1` had an inhibition in test [5] of 34%.

In the case of `Clc1ccc(C2(c3ccc(-c4ncnc5[nH]cnc45)cc3)CCNCC2)cc1`, the inhibition in test [6] was 0%.

Turning to `NC1CCN(c2ncnc3[nH]ccc23)CC1`, the inhibition in [7] is 0%; in test [8] it was 1.5%.

Consider `COC(=O)c1cnc(Nc2cnc(C#N)cn2)cc1NCC1CCNCC1`, for which the inhibition in test [9] worked out at 4%; in [10], 7%.
